Measured values from ChEMBL document CHEMBL2331514, “Structure-based design and synthesis of novel pseudosaccharine derivatives as antiproliferative agents and kinase inhibitors” (Eur J Med Chem, 2013).

Tests used:
COLO 205 = test: Cytotoxicity against human COLO205 cells assessed as growth inhibition at 10 uM after 48 hrs by SRB assay; assay type: functional; settings: COLO 205, 48 h, read-out: GI
A498 = test: Cytotoxicity against human A498 cells assessed as growth inhibition at 10 uM after 48 hrs by SRB assay; assay type: functional; settings: A498, 48 h, read-out: GI
SK-MEL-2 = test: Cytotoxicity against human SK-MEL-2 cells assessed as growth inhibition at 10 uM after 48 hrs by SRB assay; assay type: functional; settings: SK-MEL-2, 48 h, read-out: GI
SF-268 = test: Cytotoxicity against human SF268 cells assessed as growth inhibition at 10 uM after 48 hrs by SRB assay; assay type: functional; settings: SF-268, 48 h, read-out: GI
M14 = test: Cytotoxicity against human M14 cells assessed as growth inhibition at 10 uM after 48 hrs by SRB assay; assay type: functional; settings: M14, 48 h, read-out: GI
LOX IMVI = test: Cytotoxicity against human LOXIMVI cells assessed as growth inhibition at 10 uM after 48 hrs by SRB assay; assay type: functional; settings: read-out: GI
OVCAR-3 = test: Cytotoxicity against human OVCAR3 cells assessed as growth inhibition at 10 uM after 48 hrs by SRB assay; assay type: functional; settings: OVCAR-3, 48 h, read-out: GI
OVCAR-8 = test: Cytotoxicity against human OVCAR8 cells assessed as growth inhibition at 10 uM after 48 hrs by SRB assay; assay type: functional; settings: OVCAR-8, 48 h, read-out: GI
Malme-3M = test: Cytotoxicity against human MALME-3M cells assessed as growth inhibition at 10 uM after 48 hrs by SRB assay; assay type: functional; settings: read-out: GI
SK-MEL-28 = test: Cytotoxicity against human SK-MEL-28 cells assessed as growth inhibition at 10 uM after 48 hrs by SRB assay; assay type: functional; settings: SK-MEL-28, 48 h, read-out: GI
[1] = Partition coefficient, log P of the compound; assay type: physicochemical; settings: octanol/water
SF-539 = test: Cytotoxicity against human SF539 cells assessed as growth inhibition at 10 uM after 48 hrs by SRB assay; assay type: functional; settings: SF-539, 48 h, read-out: GI
BT-549 = test: Cytotoxicity against human BT549 cells assessed as growth inhibition at 10 uM after 48 hrs by SRB assay; assay type: functional; settings: BT-549, 48 h, read-out: GI
UO-31 = test: Cytotoxicity against human UO31 cells assessed as growth inhibition at 10 uM after 48 hrs by SRB assay; assay type: functional; settings: UO-31, 48 h, read-out: GI
MOLT-4 = test: Cytotoxicity against human MOLT4 cells assessed as growth inhibition at 10 uM after 48 hrs by SRB assay; assay type: functional; settings: MOLT-4, 48 h, read-out: GI
U-251 = test: Cytotoxicity against human U251 cells assessed as growth inhibition at 10 uM after 48 hrs by SRB assay; assay type: functional; settings: U-251, 48 h, read-out: GI
TK-10 = test: Cytotoxicity against human TK10 cells assessed as growth inhibition at 10 uM after 48 hrs by SRB assay; assay type: functional; settings: TK-10, 48 h, read-out: GI
Hs-578T = test: Cytotoxicity against human Hs578T cells assessed as growth inhibition at 10 uM after 48 hrs by SRB assay; assay type: functional; settings: read-out: GI
DU-145 = test: Cytotoxicity against human DU145 cells assessed as growth inhibition at 10 uM after 48 hrs by SRB assay; assay type: functional; settings: DU-145, 48 h, read-out: GI
CCRF-CEM = test: Cytotoxicity against human CCRF-CEM cells assessed as growth inhibition at 10 uM after 48 hrs by SRB assay; assay type: functional; settings: read-out: GI
CAKI-1 = test: Cytotoxicity against human Caki1 cells assessed as growth inhibition at 10 uM after 48 hrs by SRB assay; assay type: functional; settings: CAKI-1, 48 h, read-out: GI
NCI-H23 = test: Cytotoxicity against human NCI-H23 cells assessed as growth inhibition at 10 uM after 48 hrs by SRB assay; assay type: functional; settings: NCI-H23, 48 h, read-out: GI
MCF7 = test: Cytotoxicity against human MCF7 cells assessed as growth inhibition at 10 uM after 48 hrs by SRB assay; assay type: functional; settings: MCF7, 48 h, read-out: GI
786-0 = test: Cytotoxicity against human 786-0 cells assessed as growth inhibition at 10 uM after 48 hrs by SRB assay; assay type: functional; settings: 786-0, 48 h, read-out: GI
HL-60(TB) = test: Cytotoxicity against human HL-60(TB) cells assessed as growth inhibition at 10 uM after 48 hrs by SRB assay; assay type: functional; settings: HL-60, 48 h, read-out: GI
SR = test: Cytotoxicity against human SR cells assessed as growth inhibition at 10 uM after 48 hrs by SRB assay; assay type: functional; settings: read-out: GI
PC-3 = test: Cytotoxicity against human PC3 cells assessed as growth inhibition at 10 uM after 48 hrs by SRB assay; assay type: functional; settings: PC-3, 48 h, read-out: GI
MDA-MB-468 = test: Cytotoxicity against human MDA-MB-468 cells assessed as growth inhibition at 10 uM after 48 hrs by SRB assay; assay type: functional; settings: MDA-MB-468, 48 h, read-out: GI
HOP-62 = test: Cytotoxicity against human HOP62 cells assessed as growth inhibition at 10 uM after 48 hrs by SRB assay; assay type: functional; settings: HOP-62, 48 h, read-out: GI
UACC-62 = test: Cytotoxicity against human UACC62 cells assessed as growth inhibition at 10 uM after 48 hrs by SRB assay; assay type: functional; settings: UACC-62, 48 h, read-out: GI
NCI-H460 = test: Cytotoxicity against human NCI-H460 cells assessed as growth inhibition at 10 uM after 48 hrs by SRB assay; assay type: functional; settings: NCI-H460, 48 h, read-out: GI
NCI-H322M = test: Cytotoxicity against human NCI-H322M cells assessed as growth inhibition at 10 uM after 48 hrs by SRB assay; assay type: functional; settings: read-out: GI
SF-295 = test: Cytotoxicity against human SF295 cells assessed as growth inhibition at 10 uM after 48 hrs by SRB assay; assay type: functional; settings: SF-295, 48 h, read-out: GI
NCI-H522 = test: Cytotoxicity against human NCI-H522 cells assessed as growth inhibition at 10 uM after 48 hrs by SRB assay; assay type: functional; settings: NCI-H522, 48 h, read-out: GI
RXF 393 = test: Cytotoxicity against human RXF393 cells assessed as growth inhibition at 10 uM after 48 hrs by SRB assay; assay type: functional; settings: RXF 393, 48 h, read-out: GI
HCT-15 = test: Cytotoxicity against human HCT15 cells assessed as growth inhibition at 10 uM after 48 hrs by SRB assay; assay type: functional; settings: HCT-15, 48 h, read-out: GI
SNB-19 = test: Cytotoxicity against human SNB19 cells assessed as growth inhibition at 10 uM after 48 hrs by SRB assay; assay type: functional; settings: SNB-19, 48 h, read-out: GI
UACC-257 = test: Cytotoxicity against human UACC257 cells assessed as growth inhibition at 10 uM after 48 hrs by SRB assay; assay type: functional; settings: UACC-257, 48 h, read-out: GI

SMILES | inhibition of growth at 10 µM (COLO 205) [%] | inhibition of growth at 10 µM (A498) [%] | inhibition of growth at 10 µM (SK-MEL-2) [%] | inhibition of growth at 10 µM (SF-268) [%] | inhibition of growth at 10 µM (M14) [%] | inhibition of growth at 10 µM (LOX IMVI) [%] | inhibition of growth at 10 µM (OVCAR-3) [%] | inhibition of growth at 10 µM (OVCAR-8) [%] | inhibition of growth at 10 µM (Malme-3M) [%] | inhibition of growth at 10 µM (SK-MEL-28) [%] | logP [1] | inhibition of growth at 10 µM (SF-539) [%] | inhibition of growth at 10 µM (BT-549) [%] | inhibition of growth at 10 µM (UO-31) [%] | inhibition of growth at 10 µM (MOLT-4) [%] | inhibition of growth at 10 µM (U-251) [%] | inhibition of growth at 10 µM (TK-10) [%] | inhibition of growth at 10 µM (Hs-578T) [%] | inhibition of growth at 10 µM (DU-145) [%] | inhibition of growth at 10 µM (CCRF-CEM) [%] | further results
O=C(Nc1ccc(OC2=NS(=O)(=O)c3ccccc32)cc1)Nc1ccccc1Cl | -17 | 5 | -1 | 14 | 2 | 15 | 3 | 1 | 2 | -8 | 3.55 | 6 | 22 | 33 | 24 | 0 | -17 | -1 | 3 | 57 | inhibition of growth at 10 µM (CAKI-1): 6%; inhibition of growth at 10 µM (NCI-H23): 8%; inhibition of growth at 10 µM (MCF7): 23%; inhibition of growth at 10 µM (786-0): 11%; inhibition of growth at 10 µM (HL-60(TB)): 25%; inhibition of growth at 10 µM (SR): 9%; inhibition of growth at 10 µM (PC-3): 9%; inhibition of growth at 10 µM (MDA-MB-468): 8%; inhibition of growth at 10 µM (HOP-62): -8%; inhibition of growth at 10 µM (UACC-62): 16%; inhibition of growth at 10 µM (NCI-H460): -4%; inhibition of growth at 10 µM (NCI-H322M): 2%; inhibition of growth at 10 µM (SF-295): 8%; inhibition of growth at 10 µM (NCI-H522): 10%; inhibition of growth at 10 µM (RXF 393): 10%; inhibition of growth at 10 µM (HCT-15): 8%; inhibition of growth at 10 µM (SNB-19): -9%; inhibition of growth at 10 µM (UACC-257): -17%
Cc1ccc(NC2=NS(=O)(=O)c3ccc(NC(=O)CCC(=O)O)cc32)cc1 | -11 | -14 | -6 | -10 | -2 | 1 | -16 | -10 | -1 | -2 | 1 | 1 | -8 | 12 | -3 | 0 | -16 | -2 | -11 | 2 | inhibition of growth at 10 µM (CAKI-1): 1%; inhibition of growth at 10 µM (NCI-H23): 1%; inhibition of growth at 10 µM (MCF7): 8%; inhibition of growth at 10 µM (786-0): 2%; inhibition of growth at 10 µM (HL-60(TB)): 9%; inhibition of growth at 10 µM (SR): -5%; inhibition of growth at 10 µM (PC-3): -2%; inhibition of growth at 10 µM (MDA-MB-468): -6%; inhibition of growth at 10 µM (HOP-62): -5%; inhibition of growth at 10 µM (UACC-62): 6%; inhibition of growth at 10 µM (NCI-H460): -7%; inhibition of growth at 10 µM (NCI-H322M): 2%; inhibition of growth at 10 µM (SF-295): 1%; inhibition of growth at 10 µM (NCI-H522): -8%; inhibition of growth at 10 µM (RXF 393): -4%; inhibition of growth at 10 µM (HCT-15): -13%; inhibition of growth at 10 µM (SNB-19): 1%; inhibition of growth at 10 µM (UACC-257): -25%
COc1ccc(NC(=O)Nc2ccc(NC3=NS(=O)(=O)c4ccccc43)cc2)cc1 | -36 | 17 | -4 | -1 | -8 | 1 | -2 | -11 | 6 | -4 | 2.99 | 14 | 15 | 1 | 11 | 14 | -4 | -4 | 3 | 14 | inhibition of growth at 10 µM (CAKI-1): -1%; inhibition of growth at 10 µM (NCI-H23): 8%; inhibition of growth at 10 µM (MCF7): 13%; inhibition of growth at 10 µM (786-0): 19%; inhibition of growth at 10 µM (HL-60(TB)): 10%; inhibition of growth at 10 µM (SR): 11%; inhibition of growth at 10 µM (PC-3): -5%; inhibition of growth at 10 µM (MDA-MB-468): -7%; inhibition of growth at 10 µM (HOP-62): -12%; inhibition of growth at 10 µM (UACC-62): -3%; inhibition of growth at 10 µM (NCI-H460): 1%; inhibition of growth at 10 µM (NCI-H322M): 0%; inhibition of growth at 10 µM (SF-295): 18%; inhibition of growth at 10 µM (NCI-H522): 0%; inhibition of growth at 10 µM (RXF 393): -2%; inhibition of growth at 10 µM (HCT-15): 3%; inhibition of growth at 10 µM (SNB-19): -6%; inhibition of growth at 10 µM (UACC-257): -19%
